Key:
[1] = system: TYK2 pseudokinase (JH2); IL-23-stimulated HEK-Blue IL-23 cells; test: HEK-Blue IL-23 reporter assay (STAT3-inducible SEAP) for profiling TYK2 pseudokinase (JH2) inhibition; assay type: cell-based; settings: 10 ng/mL human recombinant IL-23, SEAP readout, read-out: IL23 (TYK2 inhibitory activity, IC50)
Description: (§1) Example B-1: HEK-Blue™ IL-23 and IFNα/β Reporter Assays for Profiling TYK2 Pseudokinase (JH2) Inhibition
(§2) HEK-Blue™ IL-23 and IFNα/β cells with a stably-integrated cytokine receptor and STAT3 or STAT1 express STAT-inducible secreted embryonic alkaline phosphatase (SEAP) reporter gene upon cytokine stimulation. These cells are plated in DMEM (Gibco) containing 10% heat-inactivated FBS (Gibco) and 100 U/mL PenStrep (Gibco) at 37° C. under 5% CO2 conditions for 20-22 hours. The cells are then pretreated with serially diluted test compounds for 60 min prior to stimulation with either 10 ng/mL human recombinant IL-23 (Miltenyl Biotech) or 1 ng/mL human recombinant IFNα (InvivoGen) for 22-24 hours for IL-23 or 16-18 h for IFNα. SEAP induction is measured using the QUANTI Blue™ Solution (InvivoGen) according to the manufacturer's instructions.

[2] = system: TYK2 pseudokinase (JH2); IFNα-stimulated HEK-Blue IFNα/β cells; test: HEK-Blue IFNα/β reporter assay (STAT1-inducible SEAP) for profiling TYK2 pseudokinase (JH2) inhibition; assay type: cell-based; settings: 1 ng/mL human recombinant IFNα, SEAP readout, read-out: IFNα (TYK2 inhibitory activity, IC50)
Description: as §1, §2

TYK2 kinase domain (JH1) = target: T1, TYK2 kinase domain (JH1) (Homo sapiens, UniProt P29597); test: HTRF-based selectivity assay, TYK2 catalytic domain; assay type: biochemical; settings: 20 μM ATP
T1 construct: recombinant purified His or GST-tagged catalytic domain for each enzyme; made in house
T1 sequence (P29597 897-1176 limits assumed): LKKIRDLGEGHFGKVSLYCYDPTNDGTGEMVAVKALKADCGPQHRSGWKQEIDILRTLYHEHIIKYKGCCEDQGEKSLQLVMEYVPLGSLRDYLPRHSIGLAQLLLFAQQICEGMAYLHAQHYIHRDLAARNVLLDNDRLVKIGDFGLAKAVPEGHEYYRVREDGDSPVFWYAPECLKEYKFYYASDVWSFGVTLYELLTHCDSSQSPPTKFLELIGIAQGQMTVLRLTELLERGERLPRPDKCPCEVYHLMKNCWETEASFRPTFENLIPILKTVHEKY
Description: (§3) Example B-2: HTRF-Based Selectivity Assay
(§4) The ability of compounds to inhibit the activity of JAK1, JAK2, JAK3 and TYK2 is measured using a recombinant purified His or GST-tagged catalytic domain for each enzyme (JAK1, JAK2 and TYK2 are generated in-house; JAK3 was purchased from Carna biosciences, Cat #08-046) in an HTRF format biochemical assay. The reactions employs a commercial peptide substrate from Cisbio (Cat #62TK0PEC). The basic assay protocol is as follows: first, 2.5 μL of diluted compounds (4×) in DMSO are dispensed into a 384-well Optiplate. Next, 2.5 μL of enzyme (final concentrations for enzymes are: TYK2—700 ng/mL, JAK1—80.6 ng/mL, JAK2—2.1 ng/mL and JAK3—171.8 ng/mL) is added and incubated at RT for 5-20 min. Finally, 5 μl of mixture of 2×ATP [Final concentration 20 μM for TYK2, 21.43 μM for JAK1, 14.7 μM for JAK2 and 2.12 μM for JAK3]+2× Substrate [Final concentration 217 nM for TYK2, 454.7 nM for JAK1, 200 nM for JAK2 and 257.4 nM for JAK3] is added to 384 well Optiplate. Composition of Kinase assay buffer used in the assay is as follows: HEPES 50 mM, EGTA 1 mM, MgCl2 10 mM, DTT 2 mM, Tween-20 0.01% and water. Then the plates are shaken and then incubated at 26.5° C. for 60 min.

JAK1 kinase domain (JH1) = target: T2, JAK1 kinase domain (JH1) (Homo sapiens, UniProt P23458); test: HTRF-based selectivity assay, JAK1 catalytic domain; assay type: biochemical; settings: 21.43 μM ATP, read-out: JAK-JHI (IC50)
T2 construct: recombinant purified His or GST-tagged catalytic domain for each enzyme; made in house
T2 sequence (P23458 875-1153 limits assumed): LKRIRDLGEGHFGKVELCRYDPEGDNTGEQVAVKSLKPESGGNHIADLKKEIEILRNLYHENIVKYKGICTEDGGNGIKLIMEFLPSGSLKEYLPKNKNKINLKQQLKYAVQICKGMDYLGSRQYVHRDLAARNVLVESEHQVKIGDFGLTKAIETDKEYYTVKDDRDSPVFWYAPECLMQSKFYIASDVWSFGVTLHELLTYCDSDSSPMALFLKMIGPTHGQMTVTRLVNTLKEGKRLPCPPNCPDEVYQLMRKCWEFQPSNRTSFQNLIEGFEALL
Description: as §3, §4

JAK2 kinase domain (JH1) = target: T3, JAK2 kinase domain (JH1) (Homo sapiens, UniProt O60674); test: HTRF-based selectivity assay, JAK2 catalytic domain; assay type: biochemical; settings: 14.7 μM ATP
T3 construct: recombinant purified His or GST-tagged catalytic domain for each enzyme; made in house
T3 sequence (O60674 849-1124 limits assumed): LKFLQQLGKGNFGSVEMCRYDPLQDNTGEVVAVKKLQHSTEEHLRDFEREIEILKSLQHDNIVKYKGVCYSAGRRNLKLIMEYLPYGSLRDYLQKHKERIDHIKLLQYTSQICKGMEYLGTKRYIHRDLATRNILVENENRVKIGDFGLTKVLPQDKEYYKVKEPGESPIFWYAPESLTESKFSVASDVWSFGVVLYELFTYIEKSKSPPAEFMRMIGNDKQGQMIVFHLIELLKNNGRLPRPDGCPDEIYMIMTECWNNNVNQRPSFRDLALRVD
Description: as §3, §4

JAK3 kinase domain (JH1) = target: T4, JAK3 kinase domain (JH1) (Homo sapiens, UniProt P52333); test: HTRF-based selectivity assay, JAK3 catalytic domain; assay type: biochemical; settings: 2.12 μM ATP
T4 construct: recombinant purified His or GST-tagged catalytic domain for each enzyme; purchased Carna biosciences 08-046
T4 sequence (P52333 822-1111 limits assumed): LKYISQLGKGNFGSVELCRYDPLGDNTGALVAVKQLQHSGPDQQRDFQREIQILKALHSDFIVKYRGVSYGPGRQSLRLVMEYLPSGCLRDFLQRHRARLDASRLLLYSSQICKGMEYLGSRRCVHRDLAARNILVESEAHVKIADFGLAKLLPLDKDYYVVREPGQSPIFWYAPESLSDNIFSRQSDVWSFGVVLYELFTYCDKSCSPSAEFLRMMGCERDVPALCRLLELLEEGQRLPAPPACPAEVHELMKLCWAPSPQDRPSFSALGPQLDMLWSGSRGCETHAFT
Description: as §3, §4

[3] = system: IL-2-stimulated HEK-Blue IL-2 reporter cells; test: HEK-Blue IL-2 reporter assay (STAT5-inducible SEAP) for determining selectivity; assay type: cell-based; settings: 4 ng/mL human recombinant IL-2, 24 hours
Description: (§5) Example B-3: HEK-Blue™ IL-2 and IFNγ Reporter Assays for Determining Selectivity
(§6) HEK-Blue™ IL-2 and IFNγ reporter cells with a stably-integrated cytokine receptor and STAT5 or STAT1 express STAT-inducible secreted embryonic alkaline phosphatase (SEAP) reporter gene upon cytokine stimulation. These cells were plated in DMEM (Gibco) containing 10% heat-inactivated FBS (Gibco) and 100 U/mL PenStrep (Gibco) at 37° C. under 5% CO2 conditions for 20-22 hours. The cells were then pretreated with serially diluted test compounds for 60 min prior to stimulation with either 4 ng/mL human recombinant IL-2 (Miltenyl Biotech) or 50 ng/mL human recombinant IFNγ (InvivoGen) for 24 hours. SEAP induction was measured using the QUANTI-Blue™ Solution (InvivoGen) according to the manufacturer's instructions.

[4] = system: IFNγ-stimulated HEK-Blue IFNγ reporter cells; test: HEK-Blue IFNγ reporter assay (STAT1-inducible SEAP) for determining selectivity; assay type: cell-based; settings: 50 ng/mL human recombinant IFNγ, 24 hours, read-out: IFN-γ SEAP selectivity assay IC50
Description: as §5, §6

| Structure (SMILES) | IC50 (TYK2 kinase domain (JH1)) | IC50 (JAK1 kinase domain (JH1)) | IC50 (JAK2 kinase domain (JH1)) | IC50 (JAK3 kinase domain (JH1)) | IC50 [1] | IC50 [2] | IC50 [3] | IC50 [4] |
| --- | --- | --- | --- | --- | --- | --- | --- | --- |
| [2H]C([2H])([2H])NC(=O)c1nnc(NC(=O)C2CC2)cc1Nc1cccc2c1N(C)Cc1cn(C)nc1-2 [Compound 15, 6-(cyclopropanecarboxamido)-4-((2,5-dimethyl-4,5-dihydro-2H-pyrazolo[4,3-c]quinolin-6-yl)amino)-N-(methyl-d3)pyridazine-3-carboxamide] | > 1000 nM | > 1000 nM | > 1000 nM | > 1000 nM | < 30 nM | < 30 nM | > 1000 nM | > 1000 nM |
| [2H]C([2H])([2H])NC(=O)c1nnc(NC(=O)C2CC2)cc1Nc1nccc2c1N(C)Cc1cn(C)nc1-2 [Compound 65, 6-(cyclopropanecarboxamido)-4-((2,5-dimethyl-4,5-dihydro-2H-pyrazolo[4,3-c][1,7]naphthyridin-6-yl)amino)-N-(methyl-d3)pyridazine-3-carboxamide] | > 1000 nM | > 1000 nM | > 1000 nM | > 1000 nM | < 30 nM | < 30 nM | > 1000 nM | 30 to 300 nM |
| CNC(=O)c1nnc(NC(=O)C2CC2)cc1Nc1cccc2c1OCc1cn(C)nc1-2 [Compound 2, 6-(cyclopropanecarboxamido)-N-methyl-4-((2-methyl-2,4-dihydrochromeno [4,3-c]pyrazol-6-yl)amino)pyridazine-3-carboxamide] | > 1000 nM | > 1000 nM | > 1000 nM | > 1000 nM | 30 to 300 nM | 300 to 1000 nM | > 1000 nM | 300 to 1000 nM |
| [2H]C([2H])([2H])NC(=O)c1nnc(NC(=O)C2CC2)cc1Nc1nccc2c1N(C)Cc1cc(C)nn1-2 [Compound 68, 6-(cyclopropanecarboxamido)-4-((2,5-dimethyl-4,5-dihydropyrazolo[1,5-a]pyrido[3,4-e]pyrazin-6-yl)amino)-N-(methyl-d3)pyridazine-3-carboxamide] | > 1000 nM | > 1000 nM | > 1000 nM | > 1000 nM | < 30 nM | < 30 nM | > 1000 nM |  |
| [2H]C([2H])([2H])NC(=O)c1nnc(NC(=O)C2CC2)cc1Nc1nccc2c1N(C)[C@H](C)c1cn(C)nc1-2 (single isomer, unassigned) [Compound 70] | > 1000 nM | > 1000 nM | 30 to 300 nM | 300 to 1000 nM | < 30 nM | < 30 nM | > 1000 nM |  |
| Cn1cc2c(n1)-c1cccc(Nc3cc(NC(=O)C4CC4)nc4[nH]n(C)c(=O)c34)c1OC2 [Compound 88, N-(2-methyl-4-((2-methyl-2,4-dihydrochromeno[4,3-c]pyrazol-6-yl)amino)-3-oxo-2,3-dihydro-1H-pyrazolo[3,4-b]pyridin-6-yl)cyclopropanecarboxamide] | > 1000 nM |  | > 1000 nM | > 1000 nM | 300 to 1000 nM | > 1000 nM | > 1000 nM | > 1000 nM |
| [2H]C([2H])([2H])NC(=O)c1nnc(NC(=O)C2CC2)cc1Nc1cccc2c1N(C([2H])([2H])[2H])Cc1cn(C)nc1-2 [Compound 28, 6-(cyclopropanecarboxamido)-N-(methyl-d3)-4-((2-methyl-5-(methyl-d3)-4,5-dihydro-2H-pyrazolo[4,3-c]quinolin-6-yl)amino)pyridazine-3-carboxamide] |  | > 1000 nM | > 1000 nM | > 1000 nM | < 30 nM | < 30 nM | 300 to 1000 nM | 30 to 300 nM |
| CN1Cc2cn(C)nc2-c2cccc(Nc3cc(NC(=O)C4CC4)nc4[nH]n(C)c(=O)c34)c21 [Compound 89, N-(4-((2,5-dimethyl-4,5-dihydro-2H-pyrazolo[4,3-c]quinolin-6-yl)amino)-2-methyl-3-oxo-2,3-dihydro-1H-pyrazolo[3,4-b]pyridin-6-yl)cyclopropanecarboxamide] | > 1000 nM |  | > 1000 nM | > 1000 nM | < 30 nM | 30 to 300 nM | > 1000 nM | > 1000 nM |

Now from value to molecule, other results behind:

| IC50 (TYK2 kinase domain (JH1)) | IC50 (JAK1 kinase domain (JH1)) | IC50 (JAK2 kinase domain (JH1)) | IC50 (JAK3 kinase domain (JH1)) | Structure (SMILES) | IC50 [1] | IC50 [2] | IC50 [3] | IC50 [4] |
| --- | --- | --- | --- | --- | --- | --- | --- | --- |
| > 1000 nM | > 1000 nM | > 1000 nM | > 1000 nM | [2H]C([2H])([2H])NC(=O)c1cnc(NC(=O)C2CC2)cc1Nc1cccc2c1N(C)C([2H])([2H])c1cn(C)nc1-2 [Compound 35, 6-(cyclopropanecarboxamido)-4-((2,5-dimethyl-4,5-dihydro-2H-pyrazolo[4,3-c]quinolin-6-yl-4,4-d2)amino)-N-(methyl-d3)nicotinamide] | < 30 nM | < 30 nM | > 1000 nM |  |
| > 1000 nM | > 1000 nM | > 1000 nM |  | [2H]C([2H])([2H])NC(=O)c1cnc(NC(=O)C2CC2)cc1Nc1cccc2c1N(C)Cc1cn(C3COC3)nc1-2 [Compound 29, 6-(cyclopropanecarboxamido)-N-(methyl-d3)-4-((5-methyl-2-(oxetan-3-yl)-4,5-dihydro-2H-pyrazolo[4,3-c]quinolin-6-yl)amino)nicotinamide] | < 30 nM | < 30 nM | > 1000 nM | > 1000 nM |
| > 1000 nM | > 1000 nM | > 1000 nM | > 1000 nM | [2H]C([2H])([2H])NC(=O)c1cnc(NC(=O)C2CC2)cc1Nc1cccc2c1N(C)[C@@H](C)c1cn(C)nc1-2 (single isomer, unassigned) [Compound 30] | < 30 nM | < 30 nM |  |  |
| > 1000 nM | > 1000 nM | > 1000 nM | > 1000 nM | [2H]C([2H])([2H])NC(=O)c1cnc(NC(=O)[C@H]2C[C@H]2F)cc1Nc1cccc2c1N(C)Cc1cn(C)nc1-2 (single isomer, unassigned) [Compound 32] | < 30 nM | < 30 nM | > 1000 nM |  |
| > 1000 nM | > 1000 nM | > 1000 nM |  | [2H]C([2H])([2H])NC(=O)c1cnc(NC(=O)NC)cc1Nc1cccc2c1N(C)Cc1cn(C)nc1-2 [Compound 25, 4-((2,5-dimethyl-4,5-dihydro-2H-pyrazolo[4,3-c]quinolin-6-yl)amino)-N-(methyl-d3)-6-(3-methylureido)nicotinamide] | < 30 nM | < 30 nM | > 1000 nM | > 1000 nM |

Reference: patent US12122785B2, “Substituted pyridines, pyridazines, pyrimidines, and 1,2,4-triazines as TYK2 inhibitors” (Sudo Biosciences Limited, priority 2021, dated 2024)
